Assay [1] relates to Human ESCs [SHEF3]. The assay is described as follows: Flow cytometry of pluripotency surface markers Tra-1-60 and SSEA4 in treated human ESCs. The class given is cell-based. On the procedure:
(A) Images show typical colonies formed following the indicated treatments. The scale bars represent 1 mm. (B) Histogram plots of ESCs analysed by flow cytometry following immunostaining with antibodies against the pluripotency markers Tra-1-60 or SSEA4. (C) RNA was extracted from the cells and RT-PCR analyses performed using primers specific to the pluripotency genes OCT4 and NANOG and to the house-keeping gene β-ACTIN. (D) Western blot analysis was performed on protein extracted from the cells and immunoblotted with antibodies specific to Oct4. Blots were stripped and reprobed with anti-Gapdh antibodies to assess equal loading. […] SHEF3 cells were treated with the indicated concentration of 1O for 7 days. Images show typical colony morphology. (F) Histogram plots of ESCs analysed by flow cytometry following staining with Tra-1-60 and SSEA4 antibodies. Analysis of percent positive cells and mean fluorescent intensity are indicated on the plots. (G) RT PCR analysis for the expression of OCT4 and NANOG. Bands for each of the genes were from the same gel with intervening samples removed. (H) Western blot analysis of OCT4 protein expression. Proteins bands were from the same immunoblot with intervening samples removed.
SHEF1 and SHEF3 human ESCs were obtained from the UKSCB and cultured as outlined in their protocols. Briefly, ESCs were maintained on mitomycin C-inactivated mouse embryonic fibroblast (MEF) feeder layers in KnockOut Dulbecco's modified Eagle's medium (KO DMEM) (Invitrogen) supplemented with 20% (vol/vol) KO serum replacement (KOSR; Invitrogen), 1 mM non-essential amino acids (NEAA; Invitrogen), 1 mM glutamine (Invitrogen), 0.1 mM 2-mercaptoethanol (BioRad), penicillin/streptomycin, and 4 ng/ml recombinant human FGF2 (Peprotech). Cultures were passage using 1 mg/ml collagenase at a ratio of 1:8 to 1:12 every 7 days. Cultures were transferred to a feeder-free, chemically defined culture system on ESC-qualified Matrigel® (BD) coated plates in mTeSR1® (Stem Cell Technologies) media according to Stem Cell Technologies' protocol.
ESCs were trypsinised (0.05% Trypsin-EDTA) for 10 minutes at 37° C. and resuspended in PBS containing 2% (v/v) FBS (FBS/PBS). […] Cells were washed and stained with secondary fluorescein isothiocyanate (FITC)-conjugated antibodies (SIGMA) for a further 30 minutes, if required. Flow cytometry was performed using a FACSCanto cytometer (Becton Dickenson) and the data were analysed with FACSDiva software. Dead cells were excluded for analyses based on forward and side scatter parameters.
(Flow cytometry measures light scatter and fluorescence of single cells or particles in a stream.)

The test system of assay [2] is Human ESCs [SHEF3]. The assay is described as follows: Differentiation towards definitive endoderm: immunostaining and RT-PCR of endodermal markers. The class given is cell-based. Conditions: 2 μM. On the procedure: Human ESCs [SHEF3] were maintained feeder-free on Matrigel® in chemically defined mTeSR1® media and treated with 2 μM 1M for the days indicated. (A) Expression of the endodermal markers FoxA2, Sox17 and HNF4α were analysed by immunofluorescence. Treatment with compound 1M led to expression of all markers after 7 days treatment. Scale bar represents 50 μm. (B) ESCs were harvested on day 7 following treatment with 1M for the indicated days. RNA was extracted and RT-PCR analyses performed using primers selective for the genes indicated. […] (C) BIO induces differentiation towards the DE. SHEF3 ESCs were treated with 2 μM BIO for the times indicated and immunostained with antibodies towards the endodermal markers FOXA2, SOX17 and HNF4α. (D) Compound 1L also induces differentiation towards the DE. SHEF1 ESCs were treated with 2 μM 1L for the times indicated and immunostained with antibodies towards the endodermal markers FOXA2 and HNF4α.
ESCs were cultured feeder-free on Matrigel®-coated plates in mTeSR1® media, supplemented with 2 μM compound 1M for 7 days with the media being refreshed every-other day. Definitive endoderm cultures were passaged with collagenase (1 mg/ml) and plated at a ratio of 1:10 on Matrigel® in KO DMEM supplemented with glutamine, penicillin/streptomycin, NEAA, 2% (v/v) KOSR, 10 ng/ml HGF (Peprotech) and 10 ng/ml FGF4 and cultured for a further 7 days with the media being refreshed every-other day. To allow for maturation of the HLCs, 10 ng/ml oncostatin M (Peprotech) and 10^−7 dexamethasone (SIGMA) were added to the above media and the cells were cultured for an additional 7 days with fresh media every-other day.
Total RNA was isolated and purified using TRIzol Reagent (Invitrogen), following the manufacturer's instructions. All RNA samples were treated with DNase I (Ambion) before cDNA synthesis to eliminate any contaminating genomic DNA. RNA (1 μg) was reverse transcribed into cDNA using Oligo(dT)15 (Promega) and SuperScript II (Invitrogen). Gene-specific PCR was carried out using primers and annealing temperatures outlined in Table 2.
ESCs were cultured on Matrigel®-coated lummox (Greiner Bio One) trays and fixed with 4% paraformaldehyde (PFA) for 20 minutes at room temperature. Cells were permeabilised in PBST (with 0.1% Triton X-100) and blocked in 10% blocking reagent (Roche) before incubating with primary antibodies in 2% blocking reagent overnight at 4° C. After washing in PBS, cells were incubated with FITC-conjugated secondary antibodies (Vector Labs) for 3 hours at room temperature. After further washing, the cells were stained with 4,6-diamidino-2-phenylindole (DAPI) (SIGMA), washed again and mounted in MOWIOL. […]

Where [3] appears, read: MEF culture, concentration 0.5, 7 days.
[4] abbreviates: MEF culture, concentration 2, 7 days.
The mark [5] stands for this setting: mTeSR1, concentration 0.5, 7 days.
[6] abbreviates: mTeSR1, concentration 2, 7 days.

Take `O=C1NC(=O)C2=C1c1cn(c3ccccc13)CCOCCOCCOCCOCCn1cc2c2ccccc21` [1M]: the “Expression of pluripotency markers Tra-1-60 and SSEA4 by flow cytometry (in words)” value in assay [1] (7 days treatment) is given as “dramatic decrease in expression”. In addition, the Tra1-60 % pos came out at 82.1% in assay [1] (MEF culture, concentration 0.5 (unit not given), 7 days); 18.9% in assay [1] (MEF culture, concentration 2 (unit not given), 7 days); 85.9% in assay [1] (mTeSR1 (feeder-free, Matrigel), concentration 0.5, 7 days); 25.6% in assay [1] (mTeSR1 (feeder-free, Matrigel), concentration 2, 7 days). Besides, the SSEA4 % pos in assay [1] (setting [3]) is 90.4%; in assay [1] (setting [4]), 72.9%; in assay [1] (setting [5]), 88.6%; in assay [1] (setting [6]), 52.9%. The “SSEA4 mean (mean fluorescence intensity)” value in assay [1] (setting [3]) came out at 5805; in assay [1] (setting [4]), 1656; in assay [1] (setting [5]), 7578; in assay [1] (setting [6]), 465. Besides, the “Tra1-60 mean (mean fluorescence intensity)” value in assay [1] (setting [3]) is 9403; in assay [1] (setting [4]), 1092; in assay [1] (setting [5]), 11955; in assay [1] (setting [6]) it was 312. For the same molecule, the “Differentiation towards the DE (immunostaining FOXA2, SOX17, HNF4α)” value in assay [2] (feeder-free on Matrigel in mTeSR1, up to 7 days) is listed as “differentiating towards the DE in a time dependent manner”. For the same molecule, the “Expression of HNF4α and AFP (early hepatic lineage)” value in assay [2] (following 7 days treatment) is “expression of HNF4α and α-fetoprotein (AFP) was observed”.

These data come from US8815590B2, “Composition and method for differentiation of human embryonic stem cells” (Stem Cells for Safer Medicines Limited, priority 2009, dated 2014).
